Patent US20220009874A1, “CATALYTIC SYNTHESIS OF ANTI-UV AND ANTIOXIDANT CONJUGATED 8-8 DIMERS IN A GREEN SOLVENT” (INSTITUT DES SCIENCES ET INDUSTRIES DU VIVANT ET DE …, priority 2018, published 2022)

Assay: UV absorbance of the dimers in ethanol compared with sinapoyl malate
Format: physicochemical
Details: 10 μmol·L^−1 in ethanol; for absorption band: FIG. 1
Excerpt: a. […] A change of the R3 radical can also affect these properties (FIG. 11).

Row | SMILES | absorption band | anti-UV properties (UV absorbance) compared with sinapoyl malate (FIGS. 1 to 16)
1 | COc1cc(/C=C/C(=O)OC(CC(=O)O)C(=O)O)cc(OC)c1O (stereo not drawn) [sinapoyl malate, reference compound] | 200-370 nm | 
2 | CCOC(=O)C(=Cc1cc(OC)c(O)c(OC)c1)C(=Cc1cc(OC)c(O)c(OC)c1)C(=O)OCC [ethyl β-β disinapate] | 200-400 nm | higher anti-UV properties than sinapoyl malate
